Two compounds from patent publication EP4741389A1, “KAT6 INHIBITOR” (Shanghai Qilu Pharmaceutical Research and Development …, priority 2023, dated 2025) can be followed below.

For orientation: IC50 means the concentration needed to halve the response being measured.

The target of series [1] is T1, KAT6B (Homo sapiens, UniProt Q8WYB5).
T1 construct: purchased Active Motif 81224
The series can be described thus: KATs acetyltransferase enzyme activity assay (TR-FRET), KAT6B. Format: biochemical. Particulars: Biotin-H3 (1-21) and AcCOA, 90 minutes at room temperature. The method in brief:
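TR-FRET assay in Tris-HCl buffer: enzyme preincubated with compound 15 min at room temperature, then biotin-H3(1-21) peptide and acetyl-CoA added for 90 min at room temperature. Acetylation detected with Eu-anti-acetyl-histone H4 lysine antibody and ULight-streptavidin (60 min), 665/620 nm ratio; IC50 from four-parameter logistic fit.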
(In general: In TR-FRET formats the signal depends on donor and acceptor labels being close together.)

Series [2] concerns ZR-75-1 H3K23 Acetylation. The series can be described thus: Histone H3 acetylation assay (H3K23 acetylation in ZR-75-1 cells). The settings on record: Homo sapiens, 72 hours incubation, Odyssey CLx fluorescence, read-out: ZR-75-1 H3K23 Acetylation Inhibition IC50. The format is cell-based. The method in brief: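 ZR-75-1 cells exposed to serially diluted compounds for 72 h at 37°C, then fixed with 4 w/v% paraformaldehyde, methanol-permeabilized and immunostained for acetyl-H3K23 and total histone H4. Fluorescent secondary antibody signals quantified by imaging; IC50 from four-parameter logistic nonlinear regression.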

Series [3] concerns the target T2, KAT6A (Homo sapiens, UniProt Q92794).
T2 construct: purchased Active Motif 81223
The series can be described thus: KATs acetyltransferase enzyme activity assay (TR-FRET), KAT6A. Format: biochemical. The settings on record: Biotin-H3 (1-21) and AcCOA, 90 minutes at room temperature.

Series [4] is described as follows: Body weight changes and tolerability in the ZR-75-1 xenograft study. The format is in vivo, Mouse. Particulars: result in words; for body weight changes: differences among the groups, FIG. 1; for tolerability in tumor-bearing mice: human breast cancer ZR-75-1 model. The procedure: • Species: Mouse; • Strain: BALB/c nude mice; • Age and weight: 6-8 weeks old, weighing 19-26 grams; • Gender: Female; • Supplier: GemPharmatech Co., Ltd.; • Compound source: Compound A: [drawing 190] prepared with reference to patent CN114364672A.
A mixture containing 10×10^6 ZR-75-1 cells in 100 µL PBS and 100 µL Matrigel (final volume was 200 µL) was subcutaneously implanted into the right dorsal side (upper side) of each mouse. On day 18 after cell implantation, when the average tumor volume reached 138 mm^3, grouping and administration were initiated. Mice with tumor volumes ranging from 100 to 212 mm^3 were selected for the study. Mice were randomly assigned to groups based on body weight and tumor volume, with 7 mice per group. The day of grouping was designated as PG-D0, and administration for all groups started from PG-D0.
The effects of the test drugs Compound 2, Compound 5-P2, Compound 3, and Compound A on the body weight of the female BALB/c nude mouse model with subcutaneously implanted human breast cancer ZR-75-1 cell xenografts are shown in FIG. 1.

T1 sequence (Q8WYB5 whole entry): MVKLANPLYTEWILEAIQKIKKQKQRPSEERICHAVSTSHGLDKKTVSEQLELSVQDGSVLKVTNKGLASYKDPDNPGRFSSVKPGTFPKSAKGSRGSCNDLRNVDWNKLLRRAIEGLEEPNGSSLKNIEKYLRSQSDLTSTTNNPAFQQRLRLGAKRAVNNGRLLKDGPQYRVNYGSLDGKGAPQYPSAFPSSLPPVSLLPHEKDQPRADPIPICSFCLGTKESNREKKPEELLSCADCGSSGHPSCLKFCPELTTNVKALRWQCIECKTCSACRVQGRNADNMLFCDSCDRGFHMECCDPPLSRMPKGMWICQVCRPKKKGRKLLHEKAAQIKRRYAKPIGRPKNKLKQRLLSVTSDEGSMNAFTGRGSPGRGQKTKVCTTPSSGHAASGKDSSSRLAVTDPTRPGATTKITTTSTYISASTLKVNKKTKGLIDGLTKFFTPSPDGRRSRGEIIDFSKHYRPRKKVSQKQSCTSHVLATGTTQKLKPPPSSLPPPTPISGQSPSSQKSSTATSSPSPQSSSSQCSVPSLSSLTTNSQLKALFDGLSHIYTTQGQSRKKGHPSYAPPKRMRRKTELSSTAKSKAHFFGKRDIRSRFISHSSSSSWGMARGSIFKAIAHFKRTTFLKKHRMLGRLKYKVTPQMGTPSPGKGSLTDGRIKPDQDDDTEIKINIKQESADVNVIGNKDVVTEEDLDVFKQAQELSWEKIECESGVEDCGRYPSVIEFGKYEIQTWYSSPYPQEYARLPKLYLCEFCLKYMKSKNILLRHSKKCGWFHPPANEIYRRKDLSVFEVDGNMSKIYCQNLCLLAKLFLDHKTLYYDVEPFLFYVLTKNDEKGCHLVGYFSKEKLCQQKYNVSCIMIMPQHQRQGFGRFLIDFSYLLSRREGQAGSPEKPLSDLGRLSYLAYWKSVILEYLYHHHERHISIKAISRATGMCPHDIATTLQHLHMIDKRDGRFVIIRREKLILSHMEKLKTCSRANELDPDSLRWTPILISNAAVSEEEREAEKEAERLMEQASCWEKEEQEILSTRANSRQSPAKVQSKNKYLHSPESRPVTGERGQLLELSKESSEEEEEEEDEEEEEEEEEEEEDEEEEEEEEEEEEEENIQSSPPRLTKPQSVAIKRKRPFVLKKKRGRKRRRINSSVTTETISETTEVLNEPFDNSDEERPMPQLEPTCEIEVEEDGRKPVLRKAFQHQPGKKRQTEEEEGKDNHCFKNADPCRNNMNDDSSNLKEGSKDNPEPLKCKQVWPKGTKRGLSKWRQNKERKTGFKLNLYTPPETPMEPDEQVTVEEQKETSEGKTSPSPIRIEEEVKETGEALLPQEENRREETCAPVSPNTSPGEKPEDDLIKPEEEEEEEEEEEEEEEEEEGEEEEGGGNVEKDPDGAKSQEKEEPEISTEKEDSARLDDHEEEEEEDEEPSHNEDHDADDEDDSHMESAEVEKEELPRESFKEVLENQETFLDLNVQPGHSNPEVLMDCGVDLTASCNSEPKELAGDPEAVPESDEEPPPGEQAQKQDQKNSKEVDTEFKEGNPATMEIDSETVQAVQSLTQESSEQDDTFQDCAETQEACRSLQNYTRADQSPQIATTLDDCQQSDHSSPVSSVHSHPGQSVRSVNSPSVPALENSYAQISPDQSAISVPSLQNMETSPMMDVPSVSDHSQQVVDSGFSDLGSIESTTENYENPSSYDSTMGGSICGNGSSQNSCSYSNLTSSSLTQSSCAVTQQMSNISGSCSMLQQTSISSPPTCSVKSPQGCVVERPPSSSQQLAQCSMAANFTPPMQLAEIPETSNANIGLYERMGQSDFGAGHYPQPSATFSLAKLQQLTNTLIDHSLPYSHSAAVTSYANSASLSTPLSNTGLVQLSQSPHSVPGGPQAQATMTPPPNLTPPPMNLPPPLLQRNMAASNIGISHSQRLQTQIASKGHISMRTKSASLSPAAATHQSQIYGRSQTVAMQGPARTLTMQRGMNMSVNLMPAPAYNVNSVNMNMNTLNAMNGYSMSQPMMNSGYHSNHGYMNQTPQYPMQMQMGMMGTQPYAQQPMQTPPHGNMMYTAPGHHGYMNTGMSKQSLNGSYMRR
T2 sequence (Q92794 488-778 limits assumed): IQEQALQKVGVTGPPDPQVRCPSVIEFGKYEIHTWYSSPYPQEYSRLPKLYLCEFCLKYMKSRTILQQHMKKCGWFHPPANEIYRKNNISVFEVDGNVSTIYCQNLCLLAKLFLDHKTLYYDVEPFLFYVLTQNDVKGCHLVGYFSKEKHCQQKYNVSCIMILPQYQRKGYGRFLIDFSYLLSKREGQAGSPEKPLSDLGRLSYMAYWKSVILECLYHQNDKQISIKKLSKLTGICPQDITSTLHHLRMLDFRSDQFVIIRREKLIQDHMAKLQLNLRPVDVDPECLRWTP

In the case of `COc1ccc2c(c1S(=O)(=O)Nc1noc3cc(Cn4cccn4)cc(OC)c13)OCCCO2` [Compound 2, N-(6-((1H-Pyrazol-1-yl)methyl)-4-methoxybenzo[d]isoxazol-3-yl)-7-methoxy-3,4-dihyd ro-2H-benzo[b][1,4]dioxepine-6-sulfonamide], the IC50 in series [1] turned out to be 25.2 nM; in series [2] it was 5.1 nM; in series [3], 3.2 nM. Also, in series [4], the body weight changes result was “not significant”. Moreover, the “tolerability in tumor-bearing mice” value in series [4] is “tolerated”.

Take `COc1ccc2c(c1S(=O)(=O)Nc1noc3cc(Cn4cccn4)cc(OC)c13)OC[C@@H]1C[C@H]21` [Compound 5-P2, (1aR,7bS)-N-(6-((1H-Pyrazol-1-yl)methyl)-4-methoxybenzo[d]isoxazol-3-yl)-5-methoxy-1,1a,2,7b-tetrahydrocyclopropa[c]chromene-4-sulfonamide]: the IC50 in series [1] worked out at 1.6 nM; in series [2], 0.5 nM; in series [3], 1.1 nM. Besides, the body weight changes result in series [4] was “not significant”. For the same compound, the “tolerability in tumor-bearing mice” value in series [4] is “tolerated”.
